Test system in one data set: not given
Assay: not given
Conditions: not given
By melting point is commonly meant the temperature of the solid-liquid transition. Turning to `COc1ccc(Oc2ccc(-c3cc(NC(=O)C(=O)O)c(C(=O)O)s3)cc2)cc1` (hydrate or solvate) [Example 14, 5-(4-(4-Methoxy-phenoxy)-phenyl)-3-(oxalyl-amino)-thiophene-2-carboxylic acid], the melting point was 215 °C (dec.).

In the case of `O=C(O)C(=O)Nc1scc(C2CCCCC2)c1C(=O)O` (hydrate or solvate) [Example 3, 4-Cyclohexyl-2-(oxalyl-amino)-thiophene-3-carboxylic acid], the melting point is above 250 °C.

In the case of `O=C(O)C(=O)Nc1sc(-c2ccccc2)cc1C(=O)O` [Example 19, 2-(Oxalyl-amino)-5-phenyl-thiophene-3-carboxylic acid], the melting point is 238 to 240 °C.

`O=C(O)C(=O)Nc1scc(-c2ccccc2)c1C(=O)O` (hydrate or solvate) [Example 4, 2-(Oxalyl-amino)-4-phenyl-thiophene-3-carboxylic acid] displayed a melting point of 196 to 198 °C.

Regarding `O=C(CN1C(=O)c2ccccc2C1=O)NCc1cc(C(=O)O)c(NC(=O)C(=O)O)s1` [Example 41, 5-((2-(1,3-Dioxo-1.3-dihydro-isoindol-2-yl)-acetylamino)-methyl)-2-(oxalyl-amino)-thiophene-3-carboxylic acid], the melting point was 243 to 244 °C (dec.).

For the compound `O=C(O)C(=O)Nc1sc(Cc2ccccc2)cc1C(=O)O` [Example 17, 2-(Oxalyl-amino)-5-(phenyl-methyl)thiophene-3-carboxylic acid], the melting point fell in the range of 230 to 231 °C.

For the compound `O=C(O)C(=O)Nc1nn(Cc2ccccc2)cc1C(=O)O` (hydrate or solvate) [Example 2, 1-Benzyl-3-(oxalyl-amino)-1H-pyrazole-4-carboxylic acid], the melting point lay in the range of 189 to 191 °C.

The target in a further data set is T1, PTP1B (truncated form, first 321 amino acids) (Homo sapiens, UniProt P18031).
T1 construct: a truncated form of PTP1B (corresponding to the first 321 amino acids); made in house; host or cells: E. coli
T1 sequence (P18031 1-321): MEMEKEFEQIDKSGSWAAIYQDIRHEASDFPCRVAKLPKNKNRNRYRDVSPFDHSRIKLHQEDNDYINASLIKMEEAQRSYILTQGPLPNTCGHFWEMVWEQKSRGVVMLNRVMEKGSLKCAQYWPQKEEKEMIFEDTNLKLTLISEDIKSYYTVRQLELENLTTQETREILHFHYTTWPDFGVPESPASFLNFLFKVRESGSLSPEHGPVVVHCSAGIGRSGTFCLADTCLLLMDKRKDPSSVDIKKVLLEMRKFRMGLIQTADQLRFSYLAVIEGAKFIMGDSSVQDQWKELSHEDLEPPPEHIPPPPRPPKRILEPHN
In words: Inhibition of truncated PTP1B, p-nitrophenyl phosphate substrate. The data set is classed as biochemical. As to conditions: p-nitrophenyl phosphate 0.16 to 10 mM; pH 5.5; 25° C., 60 minutes. How it is done:
The compounds are evaluated for biological activity with a truncated form of PTP1B (corresponding to the first 321 amino acids), which was expressed in E. coli and purified to apparent homogeneity using published procedures well-known to those skilled in the art. The enzyme reactions are carried out using standard conditions essentially as described by Burke et al. (Biochemistry 35; 15989-15996 (1996)). The assay conditions are as follows. Appropriate concentrations of the compounds of the invention are added to the reaction mixtures containing different concentrations of the substrate, p-nitrophenyl phosphate (range: 0.16 to 10 mM—final assay concentration). The buffer used was 100 mM sodium acetate pH 5.5, 50 mM sodium chloride, 0.1% (w/v) bovine serum albumin and 5 mM dithiothreitol (total volume […]). The reaction was started by addition of the enzyme and carried out in microtiter plates at 25° C. for 60 minutes. The reactions are stopped by addition of NaOH. The enzyme activity was determined by measurement of the absorbance at 405 nm with appropriate corrections for absorbance at 405 nm of the compounds and p-nitrophenyl phosphate. The data are analyzed using nonlinear regression fit to classical Michaelis Menten enzyme kinetic models. Inhibition is expressed as Ki values in μM.
The Ki is a dissociation constant, usually derived from enzyme kinetics or from competition with a known ligand. A high value points to a looser hold on the target. `Cc1[nH]cc(NC(=O)C(=O)O)c1C(=O)O` [Example 1, 2-Methyl4-(oxalyl-amino)-1H-pyrrole-3-carboxylic acid] came in with a Ki of 200 µM.

On to `O=C(O)C(=O)Nc1scc(-c2ccccc2)c1C(=O)O` [Example 4, 2-(Oxalyl-amino)-4-phenyl-thiophene-3-carboxylic acid], for which the Ki worked out at 100 µM.

The record behind these values is patent US20050119332A1, “Substituted thiophene compounds as modulators of protein tyrosine phosphatases (PTPases)” (priority 1998, published 2005).
